System: Anopheles, Aedes, Stephinsi and Culex mosquito vectors
Assay: Laboratory cage repellency, landing counts on treated sugar-soaked cotton bowls
Type: in vivo
Protocol: Studies were carried out against each individual species in replicates of three in each of the replicate cage, one hundred 3 to 5-day old sugar—fed female mosquitoes were held. Mosquito that are pre-starved for 4 hr or more prior to testing were used for the experiment.
Five plastic bowls with sugar—soaked cotton (10% in water) were placed at four opposing corners and one in the middle of the cage. These bowls were treated with the specified concentration of the composition described in Example 3, one specified concentration of DEET (know synthetic repellent compound as positive control) and one with only sugar-soaked cotton (Negative control). The four treated bowls were placed in four opposing corners while the untreated negative control in the middle on the floor of the cage. Five-minute landing counts were made at 0, 1, 2, 3, 4, and 6 hours with the cups were removed between the exposure intervals. Mean percent repellency for each percent formulation and species was calculated based on the data of the three replicates at the given times of observation.

**Q.** How did the “mosquitoes repelled with reference to the control” value (after 4 hrs) turn out when `CCN(CC)C(=O)c1cccc(C)c1` [DEET] was run?
**A.** The value was 79%.

**Q.** What about the mosquitoes repelled (in 4 hrs) of the same compound?
**A.** The mosquitoes repelled was 97%.
